In brackets after ≈: the same amount, converted by molar mass. Activity calls are given as the source filed them. The calls are words filed in the database; no cut-off is given here.
How the values were obtained:
[1] = AUClast in Sprague-Dawley rat plasma at 10 ug,IT(Intratracheal) by HPLC-MS/MS analysis; format: ADME, cell-free; set-up: dose 10 µg, route it(Intratracheal); conditions: inhaled or intranasal
[2] = target: 3',5'-cyclic-AMP phosphodiesterase 4C (Homo sapiens, UniProt Q08493); test: Inhibition of human recombinant PDE4C2 expressed in baculovirus expression system using cAMP as substrate by radiometric assay
[3] = target: cGMP-inhibited 3',5'-cyclic phosphodiesterase 3A (Homo sapiens) (UniProt Q14432); test: Inhibition of human recombinant PDE3A expressed in baculovirus expression system using cAMP as substrate at 1 uM by radiometric assay
Rattus norvegicus [4] = test: Anti-bronchospastic activity in carbachol-induced bronchospasm Sprague-Dawley rat model assessed as inhibition of carbachol-induced bronchoconstriction at 30 nmol/kg, IT(Intratracheal) administered 1 hr prior to carbachol challenge; format: functional; set-up: scale not given: the % may be the effect or the level left
[5] = Toxicity in pilocarpine hydrochloride induced salivation Sprague-Dawley rat model assessed as inhibition of salivary secretion at 3 mM,INH for 10 mins; conditions: in vivo
[6] = target: 3',5'-cyclic-AMP phosphodiesterase 4A (Homo sapiens, UniProt P27815); test: Inhibition of human recombinant PDE4A4 expressed in baculovirus expression system using cAMP as substrate by radiometric assay
[7] = target: T1, 3',5'-cyclic-AMP phosphodiesterase 4B (Homo sapiens, UniProt Q07343); test: Inhibition of human recombinant PDE4B2 expressed in baculovirus expression system using cAMP as substrate by radiometric assay
Rattus norvegicus [8] = test: Anti-inflammatory activity against OVA-sensitized Brown-Norway rat airway inflammation model assessed as inhibition of OVA-induced eosinophil influx at 100 nmol/kg,IT(Intratracheal) pretreated 24 hrs prior to OVA challenge and measured after 48 hrs by automated cell counter analysis; format: functional; set-up: scale not given: the % may be the effect or the level left; conditions: time 72 hrs
[9] = Toxicity in ferret assessed as appearance of nausea-like behavior at 10 nmol/kg,po and measured for 4 hrs by behavioral analysis; set-up: species or system Mustela putorius furo; conditions: in vivo
[10] = Antiinflammatory activity against LPS-stimulated human PBMC cells assessed reduction in TNFalpha level incubated for 18 hrs by ELISA analysis; format: functional, cell-based; conditions: Homo sapiens, PBMC, 18 h
Rattus norvegicus [11] = test: Anti-bronchospastic activity in carbachol-induced bronchospasm Sprague-Dawley rat model assessed as inhibition of carbachol-induced bronchoconstriction administered IT(Intratracheal) for 1 hr prior to carbachol challenge; format: functional; conditions: Rattus norvegicus, Sprague-Dawley, read-out: ED50
[12] = Toxicity in ferret assessed as emetic response at 10 nmol/kg,po and measured for 4 hrs by behavioral analysis; set-up: species or system Mustela putorius furo; conditions: in vivo
Trachea = test: Bronchoconstriction activity in Sprague-Dawley rat trachea assessed as inhibition of carbachol-induced tracheal contraction; format: functional, tissue-based; conditions: Rattus norvegicus, Sprague-Dawley, Trachea
[13] = Solubility of compound simulated lung fluid at 1 mg/ml and measured at 0 hr by UPLC-MS analysis; format: physicochemical
[14] = AUC (0 to infinity) in Sprague-Dawley rat lung at 10 ug,IT(Intratracheal) by HPLC-MS/MS analysis; format: ADME, tissue-based; set-up: dose 10 µg, route it(Intratracheal); conditions: in vivo, inhaled_or_intranasal
Rattus norvegicus [15] = test: Anti-inflammatory activity against OVA-sensitized Brown-Norway rat airway inflammation model assessed as inhibition of OVA-induced eosinophil influx in BALF at 30 nmol/kg, IT(Intratracheal) pretreated 24 hrs prior to OVA challenge and measured after 48 hrs by automated cell counter analysis; format: functional; set-up: scale not given: the % may be the effect or the level left
[16] = Ratio of ED50 for Anti-inflammatory activity against OVA-sensitized Brown-Norway rat airway inflammation model to ED50 for Anti-bronchospastic activity in carbachol-induced bronchospasm Sprague-Dawley rat model; format: functional
[17] = target: Dual specificity calcium/calmodulin-dependent 3',5'-cyclic nucleotide phosphodiesterase 1A (Homo sapiens) (UniProt P54750); test: Inhibition of human recombinant PDE1A3 expressed in baculovirus expression system using cAMP as substrate at 1 uM by radiometric assay
[18] = target: Muscarinic acetylcholine receptor M3 (Homo sapiens, UniProt P20309); test: Displacement of [3H]N-methylscopolamine chloride from human muscarinic M3 receptor incubated for 2 hrs by radioligand binding assay
[19] = Solubility of compound simulated lung fluid at 1 mg/ml and measured at 2 hr by UPLC-MS analysis; format: physicochemical
Rattus norvegicus [20] = test: Anti-inflammatory activity against OVA-sensitized Brown-Norway rat airway inflammation model assessed as inhibition of OVA-induced eosinophil influx at 1000 nmol/kg,IT(Intratracheal) pretreated 24 hrs prior to OVA challenge and measured after 48 hrs by automated cell counter analysis; format: functional; set-up: scale not given: the % may be the effect or the level left; conditions: time 72 hrs
[21] = Toxicity in ferret assessed as appearance of nausea-like behavior at 10 nmol/kg, IT(Intratracheal) and measured for 4 hrs by behavioral analysis; set-up: species or system Mustela putorius furo; conditions: in vivo, inhaled_or_intranasal
Rattus norvegicus [22] = test: Anti-inflammatory activity against OVA-sensitized Brown-Norway rat airway inflammation model assessed as inhibition of OVA-induced eosinophil influx administered IT(Intratracheal) pretreated 24 hrs prior to OVA challenge and measured after 48 hrs by automated cell counter analysis; format: functional; conditions: time 72 hrs
Rattus norvegicus [23] = test: Anti-bronchospastic activity in carbachol-induced bronchospasm Sprague-Dawley rat model assessed as inhibition of carbachol-induced bronchoconstriction at 30 nmol/kg, IT(Intratracheal) administered 16 hr prior to carbachol challenge; format: functional; set-up: scale not given: the % may be the effect or the level left
[24] = Toxicity in pilocarpine hydrochloride induced salivation Sprague-Dawley rat model assessed as inhibition of salivary secretion at 1 mM,INH for 10 mins; conditions: in vivo, inhaled_or_intranasal, 1000 µM
Rattus norvegicus [25] = test: Anti-inflammatory activity against OVA-sensitized Brown-Norway rat airway inflammation model assessed as inhibition of OVA-induced eosinophil influx at 10 nmol/kg,IT(Intratracheal) pretreated 2 hrs prior to OVA challenge by automated cell counter analysis; format: functional; set-up: scale not given: the % may be the effect or the level left
Rattus norvegicus [26] = test: Anti-inflammatory activity against OVA-sensitized Brown-Norway rat airway inflammation model assessed as inhibition of OVA-induced eosinophil influx administered IT(Intratracheal) 2 hrs prior to OVA challenge; format: functional
[27] = Cmax in Sprague-Dawley rat plasma at 10 ug,IT(Intratracheal) by HPLC-MS/MS analysis; format: ADME, cell-free; set-up: dose 10 µg, route it(Intratracheal); conditions: inhaled or intranasal
[28] = Half life in Sprague-Dawley rat lung at 10 ug,IT(Intratracheal) by HPLC-MS/MS analysis; format: ADME, tissue-based; conditions: inhaled or intranasal, dose 10 µg
[29] = target: 3',5'-cyclic-AMP phosphodiesterase 4D (Homo sapiens, UniProt Q08499); test: Inhibition of human recombinant PDE4D3 expressed in baculovirus expression system using cAMP as substrate by radiometric assay
Rattus norvegicus [30] = test: Anti-inflammatory activity against OVA-sensitized Brown-Norway rat airway inflammation model assessed as inhibition of OVA-induced eosinophil influx at 1 nmol/kg,IT(Intratracheal) pretreated 2 hrs prior to OVA challenge by automated cell counter analysis; format: functional; set-up: scale not given: the % may be the effect or the level left
[31] = target: cGMP-specific 3',5'-cyclic phosphodiesterase (Homo sapiens) (UniProt O76074); test: Inhibition of human recombinant PDE5 catalytic domain expressed in baculovirus expression system using […] as substrate at 1 uM by radiometric assay
[32] = Cmax in Sprague-Dawley rat lung at 10 ug,IT(Intratracheal) by HPLC-MS/MS analysis; format: ADME, tissue-based; set-up: dose 10 µg, route it(Intratracheal); conditions: inhaled or intranasal
Rattus norvegicus [33] = test: Anti-inflammatory activity against OVA-sensitized Brown-Norway rat airway inflammation model assessed as inhibition of OVA-induced eosinophil influx at 100 nmol/kg,IT(Intratracheal) pretreated 2 hrs prior to OVA challenge by automated cell counter analysis; format: functional; set-up: scale not given: the % may be the effect or the level left
[34] = target: T1, 3',5'-cyclic-AMP phosphodiesterase 4B; test: Inhibition of human recombinant PDE4B2 expressed in baculovirus expression system using cAMP as substrate incubated for 2 hrs by HTRF assay
[35] = target: T2, Muscarinic acetylcholine receptor M2 (Homo sapiens, UniProt P08172); test: Displacement of [3H]N-methylscopolamine chloride from human muscarinic M2 receptor incubated for 2 hrs by radioligand binding assay
T2 sequence (P08172 whole entry): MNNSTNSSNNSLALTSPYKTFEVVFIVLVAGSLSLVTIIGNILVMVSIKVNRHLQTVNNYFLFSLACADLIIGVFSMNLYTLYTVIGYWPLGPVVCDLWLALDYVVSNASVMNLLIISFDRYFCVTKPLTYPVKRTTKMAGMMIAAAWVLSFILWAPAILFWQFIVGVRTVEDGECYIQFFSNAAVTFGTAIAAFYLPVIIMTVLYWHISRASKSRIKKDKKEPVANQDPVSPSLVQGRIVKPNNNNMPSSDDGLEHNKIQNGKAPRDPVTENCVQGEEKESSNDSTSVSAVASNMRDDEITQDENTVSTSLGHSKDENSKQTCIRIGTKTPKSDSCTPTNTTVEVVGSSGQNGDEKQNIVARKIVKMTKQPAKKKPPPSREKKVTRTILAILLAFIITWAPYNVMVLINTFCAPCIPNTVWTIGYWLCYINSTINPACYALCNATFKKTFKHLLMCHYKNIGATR

Rattus norvegicus [36] = test: Anti-inflammatory activity against OVA-sensitized Brown-Norway rat airway inflammation model assessed as inhibition of OVA-induced eosinophil influx at 10 nmol/kg,IT(Intratracheal) pretreated 24 hrs prior to OVA challenge and measured after 48 hrs by automated cell counter analysis; format: functional; set-up: scale not given: the % may be the effect or the level left
[37] = Toxicity in ferret assessed as emetic response at 10 nmol/kg, IT(Intratracheal) and measured for 4 hrs by behavioral analysis; set-up: species or system Mustela putorius furo; conditions: in vivo, inhaled_or_intranasal
[38] = Metabolic stability in human lung S9 fraction assessed as half life at 1 uM and measured upto 60 mins in presence of NADPH by LC-MS/MS analysis; format: ADME, subcellular; conditions: lung S9 fraction
[39] = Metabolic stability in human liver microsomes assessed as intrinsic clerance at 1 uM and measured upto 60 mins by HPLC-MS/MS analysis; format: ADME, Microsome; conditions: liver microsomes, read-out: CLH
[40] = Metabolic stability in rat plasma assessed as half life at 5 uM and measured upto 180 mins by HPLC-MS/MS analysis; format: ADME, cell-free
Rattus norvegicus [41] = test: Anti-bronchospastic activity in carbachol-induced bronchospasm Sprague-Dawley rat model assessed as inhibition of carbachol-induced bronchoconstriction at 3 nmol/kg, IT(Intratracheal) administered 1 hr prior to carbachol challenge; format: functional; set-up: scale not given: the % may be the effect or the level left
[42] = Antiinflammatory activity against LPS-stimulated rat PBMC cells assessed reduction in TNFalpha level incubated for 18 hrs by ELISA analysis; format: functional, cell-based
[43] = Metabolic stability in rat liver microsomes assessed as intrinsic clerance at 1 uM and measured upto 60 mins by HPLC-MS/MS analysis; format: ADME, Microsome; conditions: liver microsomes, read-out: CLH
Rattus norvegicus [44] = test: Anti-bronchospastic activity in carbachol-induced bronchospasm Sprague-Dawley rat model assessed as inhibition of carbachol-induced bronchoconstriction at 3 nmol/kg, IT(Intratracheal) administered 16 hr prior to carbachol challenge; format: functional; set-up: scale not given: the % may be the effect or the level left
[45] = Metabolic stability in rat lung S9 fraction assessed as half life at 1 uM and measured upto 60 mins in presence of NADPH by LC-MS/MS analysis; format: ADME, subcellular; conditions: lung S9 fraction
[46] = Metabolic stability in human plasma assessed as half life at 5 uM and measured upto 180 mins by HPLC-MS/MS analysis; format: ADME, cell-free

T1 sequence (Q07343 whole entry): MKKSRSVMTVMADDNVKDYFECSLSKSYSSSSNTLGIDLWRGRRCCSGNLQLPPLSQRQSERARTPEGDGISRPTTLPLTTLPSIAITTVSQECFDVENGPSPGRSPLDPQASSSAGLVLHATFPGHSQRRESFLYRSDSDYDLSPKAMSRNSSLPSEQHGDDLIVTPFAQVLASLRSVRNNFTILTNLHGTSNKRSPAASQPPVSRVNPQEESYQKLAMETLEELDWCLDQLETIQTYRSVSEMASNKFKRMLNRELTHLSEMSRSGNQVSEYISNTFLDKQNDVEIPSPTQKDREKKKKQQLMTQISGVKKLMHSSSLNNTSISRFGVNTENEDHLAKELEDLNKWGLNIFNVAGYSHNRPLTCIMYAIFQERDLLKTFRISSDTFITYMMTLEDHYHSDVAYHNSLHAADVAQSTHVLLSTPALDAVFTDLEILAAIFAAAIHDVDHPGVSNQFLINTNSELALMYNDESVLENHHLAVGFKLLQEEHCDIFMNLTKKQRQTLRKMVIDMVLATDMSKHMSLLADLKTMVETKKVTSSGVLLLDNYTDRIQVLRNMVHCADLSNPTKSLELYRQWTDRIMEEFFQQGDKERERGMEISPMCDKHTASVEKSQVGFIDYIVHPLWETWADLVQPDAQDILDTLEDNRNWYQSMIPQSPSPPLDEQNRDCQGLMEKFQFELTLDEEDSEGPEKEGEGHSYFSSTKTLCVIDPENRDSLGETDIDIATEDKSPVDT
Muscarinic acetylcholine receptor M3, sequence (P20309 whole entry): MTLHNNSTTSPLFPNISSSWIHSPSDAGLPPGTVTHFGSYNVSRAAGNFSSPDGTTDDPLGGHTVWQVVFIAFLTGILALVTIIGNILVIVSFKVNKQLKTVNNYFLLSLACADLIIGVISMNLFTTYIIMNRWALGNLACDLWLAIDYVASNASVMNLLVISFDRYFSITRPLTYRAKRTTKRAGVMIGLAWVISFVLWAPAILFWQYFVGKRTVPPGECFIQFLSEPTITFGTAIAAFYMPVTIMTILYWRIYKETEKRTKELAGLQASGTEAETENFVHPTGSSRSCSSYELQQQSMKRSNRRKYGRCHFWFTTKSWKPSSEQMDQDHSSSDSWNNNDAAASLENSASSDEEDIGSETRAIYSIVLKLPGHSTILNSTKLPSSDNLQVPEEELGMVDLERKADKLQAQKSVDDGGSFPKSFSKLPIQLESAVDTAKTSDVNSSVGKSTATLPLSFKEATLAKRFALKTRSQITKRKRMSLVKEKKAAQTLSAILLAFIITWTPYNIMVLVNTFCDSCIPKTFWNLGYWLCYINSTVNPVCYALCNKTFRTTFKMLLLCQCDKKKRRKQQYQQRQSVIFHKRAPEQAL
Dual specificity calcium/calmodulin-dependent 3',5'-cyclic nucleotide phosphodiesterase 1A (Homo sapiens), sequence (P54750 whole entry): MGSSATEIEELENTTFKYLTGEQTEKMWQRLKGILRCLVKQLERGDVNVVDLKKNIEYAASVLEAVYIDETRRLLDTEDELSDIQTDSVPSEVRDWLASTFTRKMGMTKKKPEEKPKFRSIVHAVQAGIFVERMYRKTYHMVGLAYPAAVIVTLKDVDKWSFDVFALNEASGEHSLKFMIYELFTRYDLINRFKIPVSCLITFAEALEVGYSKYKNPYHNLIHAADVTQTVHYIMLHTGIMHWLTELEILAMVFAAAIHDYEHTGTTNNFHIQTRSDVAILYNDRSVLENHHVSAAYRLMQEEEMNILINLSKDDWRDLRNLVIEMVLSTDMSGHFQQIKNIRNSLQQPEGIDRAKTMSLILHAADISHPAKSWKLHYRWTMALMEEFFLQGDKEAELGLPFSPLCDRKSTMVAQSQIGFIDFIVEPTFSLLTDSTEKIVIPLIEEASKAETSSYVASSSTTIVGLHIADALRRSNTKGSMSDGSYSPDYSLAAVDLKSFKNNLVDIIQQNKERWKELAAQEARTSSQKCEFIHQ
3',5'-cyclic-AMP phosphodiesterase 4D, sequence (Q08499 whole entry): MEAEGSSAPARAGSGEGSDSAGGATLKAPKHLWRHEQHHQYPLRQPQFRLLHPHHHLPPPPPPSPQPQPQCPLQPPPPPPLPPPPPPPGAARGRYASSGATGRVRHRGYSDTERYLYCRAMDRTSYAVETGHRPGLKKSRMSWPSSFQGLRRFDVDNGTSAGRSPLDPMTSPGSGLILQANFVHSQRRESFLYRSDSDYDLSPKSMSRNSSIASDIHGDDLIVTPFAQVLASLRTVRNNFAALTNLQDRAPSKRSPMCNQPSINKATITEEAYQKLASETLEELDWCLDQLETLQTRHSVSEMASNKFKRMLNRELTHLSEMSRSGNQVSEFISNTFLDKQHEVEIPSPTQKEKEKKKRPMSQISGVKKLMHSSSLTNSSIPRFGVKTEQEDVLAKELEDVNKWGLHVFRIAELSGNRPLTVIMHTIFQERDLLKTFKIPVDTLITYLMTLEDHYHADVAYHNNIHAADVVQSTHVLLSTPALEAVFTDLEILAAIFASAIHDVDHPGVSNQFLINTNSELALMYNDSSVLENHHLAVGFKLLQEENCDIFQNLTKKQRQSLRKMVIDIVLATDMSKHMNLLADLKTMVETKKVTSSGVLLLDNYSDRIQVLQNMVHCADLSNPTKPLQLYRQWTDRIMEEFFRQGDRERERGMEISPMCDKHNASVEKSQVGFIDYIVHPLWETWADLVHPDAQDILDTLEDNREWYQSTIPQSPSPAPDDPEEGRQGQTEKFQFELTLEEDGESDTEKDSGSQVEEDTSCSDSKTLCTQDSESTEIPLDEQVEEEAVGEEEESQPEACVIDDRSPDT
3',5'-cyclic-AMP phosphodiesterase 4A, sequence (P27815 whole entry): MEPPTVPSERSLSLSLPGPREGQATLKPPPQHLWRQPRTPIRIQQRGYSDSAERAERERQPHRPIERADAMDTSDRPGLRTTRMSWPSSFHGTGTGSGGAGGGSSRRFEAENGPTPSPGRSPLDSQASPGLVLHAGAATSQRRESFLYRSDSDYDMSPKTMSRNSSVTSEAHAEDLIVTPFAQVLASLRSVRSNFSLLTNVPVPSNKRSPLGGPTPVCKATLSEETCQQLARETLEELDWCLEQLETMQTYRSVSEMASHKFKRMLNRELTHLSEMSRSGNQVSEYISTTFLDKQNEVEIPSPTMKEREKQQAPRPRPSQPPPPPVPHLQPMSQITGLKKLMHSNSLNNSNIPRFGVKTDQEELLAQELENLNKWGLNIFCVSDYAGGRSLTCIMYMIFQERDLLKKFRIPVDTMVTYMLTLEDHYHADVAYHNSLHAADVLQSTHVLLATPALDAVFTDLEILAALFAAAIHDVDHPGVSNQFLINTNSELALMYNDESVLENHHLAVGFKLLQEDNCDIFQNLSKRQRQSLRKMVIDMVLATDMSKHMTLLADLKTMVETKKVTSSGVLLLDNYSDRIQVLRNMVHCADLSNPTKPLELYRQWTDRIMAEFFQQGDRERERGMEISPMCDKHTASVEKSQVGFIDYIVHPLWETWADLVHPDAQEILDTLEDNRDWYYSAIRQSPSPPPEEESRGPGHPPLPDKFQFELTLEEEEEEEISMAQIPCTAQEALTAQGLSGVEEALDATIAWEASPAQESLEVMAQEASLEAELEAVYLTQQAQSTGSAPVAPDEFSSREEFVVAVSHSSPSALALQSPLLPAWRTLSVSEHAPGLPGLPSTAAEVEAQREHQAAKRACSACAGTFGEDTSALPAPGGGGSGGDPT
cGMP-inhibited 3',5'-cyclic phosphodiesterase 3A (Homo sapiens), sequence (Q14432 whole entry): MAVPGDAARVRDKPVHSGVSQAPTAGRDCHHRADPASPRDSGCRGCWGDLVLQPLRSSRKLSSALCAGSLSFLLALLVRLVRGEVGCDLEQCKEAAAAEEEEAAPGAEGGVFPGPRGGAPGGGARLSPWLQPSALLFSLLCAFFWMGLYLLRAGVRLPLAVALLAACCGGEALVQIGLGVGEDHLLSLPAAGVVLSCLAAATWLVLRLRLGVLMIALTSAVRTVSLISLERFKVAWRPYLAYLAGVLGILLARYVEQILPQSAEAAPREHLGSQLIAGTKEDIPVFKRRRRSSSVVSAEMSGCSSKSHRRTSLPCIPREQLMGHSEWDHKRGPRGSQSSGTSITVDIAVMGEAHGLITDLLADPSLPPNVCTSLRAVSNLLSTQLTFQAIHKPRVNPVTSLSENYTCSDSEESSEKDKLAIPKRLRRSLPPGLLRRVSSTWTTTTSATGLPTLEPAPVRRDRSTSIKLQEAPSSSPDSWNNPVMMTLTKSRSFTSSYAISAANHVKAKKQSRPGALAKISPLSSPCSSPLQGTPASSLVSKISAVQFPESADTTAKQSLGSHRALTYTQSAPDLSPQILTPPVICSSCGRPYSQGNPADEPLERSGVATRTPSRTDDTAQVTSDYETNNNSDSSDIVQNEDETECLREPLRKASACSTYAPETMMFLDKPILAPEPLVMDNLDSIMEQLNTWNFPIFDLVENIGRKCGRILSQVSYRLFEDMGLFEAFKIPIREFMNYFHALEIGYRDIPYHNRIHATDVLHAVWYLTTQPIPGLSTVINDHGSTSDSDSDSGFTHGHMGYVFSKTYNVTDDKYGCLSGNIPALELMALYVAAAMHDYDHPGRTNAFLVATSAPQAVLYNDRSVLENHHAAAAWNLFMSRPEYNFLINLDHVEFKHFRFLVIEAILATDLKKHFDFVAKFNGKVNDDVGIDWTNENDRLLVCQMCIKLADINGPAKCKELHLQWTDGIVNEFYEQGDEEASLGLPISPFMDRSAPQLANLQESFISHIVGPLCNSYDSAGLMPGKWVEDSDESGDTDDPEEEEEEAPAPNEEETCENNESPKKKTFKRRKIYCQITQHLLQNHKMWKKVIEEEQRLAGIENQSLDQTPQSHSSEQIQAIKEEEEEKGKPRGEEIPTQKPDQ

CCOc1cc([C@H](Cc2c(Cl)c[n+]([O-])cc2Cl)OC(=O)c2ccc(CN[C@@](CO)(C(=O)O[C@H]3CN4CCC3CC4)c3ccccc3)s2)ccc1OC
AUC(0-t) [1]: 3.7 ng·h/mL
IC50 [2]: 0.0251 nM
inhibition [3]: inactive
Activity (Rattus norvegicus [4]): 80%
Activity ([5]; inhaled_or_intranasal, 10 min, 3000 µM): Non-Toxic
IC50 [6]: 0.0316 nM
IC50 [7]: 0.0398 nM
Activity (Rattus norvegicus [8]): 72%
Activity [9]: Non-Toxic
IC50 [10]: 0.316 nM
ED50 (Rattus norvegicus [11]): 0.007 µmol/kg
Activity [12]: Non-Toxic
IC50 (Trachea): 12.6 nM
solubility at 0 h [13]: 3.3 µg/mL (≈ 4.28 µM)
AUC [14]: 9242 ng·h/g
Activity (Rattus norvegicus [15]): 63%
Ratio ED50 [16]: 1
inhibition [17]: inactive
Ki [18]: 0.631 nM
solubility at 2 h [19]: 1.6 µg/mL (≈ 2.08 µM)
Activity (Rattus norvegicus [20]): >100%
Activity [21]: Non-Toxic
ED50 (Rattus norvegicus [22]): 0.016 µmol/kg
Activity (Rattus norvegicus [23]): 83%
Activity [24]: Non-Toxic
Activity (Rattus norvegicus [25]): 60%
ED50 (Rattus norvegicus [26]): 0.007 µmol/kg
Cmax [27]: 2 ng/mL
half-life [28]: 258 min
IC50 [29]: 0.398 nM
Activity (Rattus norvegicus [30]): 28%
inhibition [31]: inactive
Cmax [32]: 6270 ng/g
Activity (Rattus norvegicus [33]): 92%
IC50 [34]: 1 nM
Ki [35]: 10 nM
Activity (Rattus norvegicus [36]): 45%
Activity [37]: Non-Toxic

COc1ccc([C@H](Cc2c(Cl)c[n+]([O-])cc2Cl)OC(=O)c2ccc(CN[C@@H](C(=O)O[C@H]3CN4CCC3CC4)c3ccccc3)s2)cc1OC
half-life at 1 µM [38]: 69 min
microsomal CLint at 1 µM [39]: 213 µL/min/mg
half-life at 5 µM [40]: 9 min
Activity (Rattus norvegicus [41]): 74%
IC50 [42]: 2 nM
IC50 [10]: 1.58 nM
ED50 (Rattus norvegicus [11]): 0.0007 µmol/kg
IC50 (Trachea): 1 nM
microsomal CLint at 1 µM [43]: 126 µL/min/mg
Activity (Rattus norvegicus [44]): 67%
Ratio ED50 [16]: 42
Ki [18]: 0.0631 nM
half-life at 1 µM [45]: 15 min
ED50 (Rattus norvegicus [26]): 0.03 µmol/kg
half-life at 5 µM [46]: 11 min
IC50 [34]: 1.58 nM

O=C(Nc1c(Cl)cncc1Cl)c1ccc(OC(F)F)c(OCC2CC2)c1 [ROFLUMILAST]
Activity [9]: Toxic
Activity [12]: Toxic
Activity [21]: Toxic
Activity [37]: Toxic

C[N+]1(C)[C@@H]2C[C@@H](OC(=O)C(O)(c3cccs3)c3cccs3)C[C@H]1[C@@H]1O[C@@H]12 [TIOTROPIUM]
inhibition at 10 min, 3000 µM ([5]; Sprague-Dawley, inhaled or intranasal, read-out: Activity): 62%
